{"source": "patent US20200268684A1", "about": "“COMPOSITION FOR TREATING AND PREVENTING NEUROLOGICAL DISEASES, NEUROINFLAMATION AND ALZHEIMER'S DISEASE” (HSRX GROUP, LLC, priority 2015, published 2020)", "origin": "cited, not measured here", "tested_on": "Aβ1-40 and Aβ1-42 peptides in SweAPP N2a cells", "details": "3-30 μg/mL, 12 hours", "data": [{"smiles": "COc1cc(/C=C/C(=O)CC(=O)/C=C/c2ccc(O)c(OC)c2)ccc1O", "note": "[curcumin]", "values": [{"measurement": "reduction of Aβ1-40 and Aβ1-42 peptides secreted", "value": "significant inhibition"}]}]}
